The assay has as its target T1, human TLR8 (Homo sapiens, UniProt Q9NR97).
T1 construct: host or cells: HEK293 (HEK-Blue hTLR8)
T1 sequence (Q9NR97 27-1041): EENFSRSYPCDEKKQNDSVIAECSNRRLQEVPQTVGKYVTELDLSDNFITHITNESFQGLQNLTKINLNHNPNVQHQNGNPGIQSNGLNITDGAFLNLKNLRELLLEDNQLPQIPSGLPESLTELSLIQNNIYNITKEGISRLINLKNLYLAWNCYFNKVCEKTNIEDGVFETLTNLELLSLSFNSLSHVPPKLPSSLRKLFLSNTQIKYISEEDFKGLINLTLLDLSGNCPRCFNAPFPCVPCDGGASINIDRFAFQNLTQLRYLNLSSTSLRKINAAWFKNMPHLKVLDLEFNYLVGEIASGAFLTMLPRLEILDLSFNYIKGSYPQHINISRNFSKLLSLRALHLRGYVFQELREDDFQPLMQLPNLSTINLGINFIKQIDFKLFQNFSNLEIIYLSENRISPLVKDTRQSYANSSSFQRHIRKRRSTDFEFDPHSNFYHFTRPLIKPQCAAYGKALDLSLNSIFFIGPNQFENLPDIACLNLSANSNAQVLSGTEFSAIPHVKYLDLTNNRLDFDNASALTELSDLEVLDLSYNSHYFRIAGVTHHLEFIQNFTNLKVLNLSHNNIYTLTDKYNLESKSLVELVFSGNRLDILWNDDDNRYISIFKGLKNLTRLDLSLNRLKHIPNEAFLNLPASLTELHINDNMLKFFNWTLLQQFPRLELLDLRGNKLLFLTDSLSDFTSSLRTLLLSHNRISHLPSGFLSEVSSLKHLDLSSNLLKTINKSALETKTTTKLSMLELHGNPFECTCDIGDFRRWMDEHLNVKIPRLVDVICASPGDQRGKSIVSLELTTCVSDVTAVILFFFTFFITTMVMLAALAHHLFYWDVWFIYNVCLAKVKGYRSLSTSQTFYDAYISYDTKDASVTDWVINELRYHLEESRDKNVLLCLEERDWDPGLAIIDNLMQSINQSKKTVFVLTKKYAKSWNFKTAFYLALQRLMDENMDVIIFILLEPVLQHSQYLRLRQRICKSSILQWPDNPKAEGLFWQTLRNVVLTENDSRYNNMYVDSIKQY
In words: HEK293-Blue-hTLR-8 cells assay. The class given is cell-based. The following applies: HEK293-Blue-hTLR8 cells, R848 stimulation, 20 hrs; read-out: HEK/hTLR8 IC50. The text has this:
A stable HEK293-Blue-hTLR-8 cell line was purchased from InvivoGen (Cat. #: hkb-htlr8, San Diego, California, USA). These cells were originally designed for studying the stimulation of human TLR8 by monitoring the activation of NF-κB. A SEAP (secreted embryonic alkaline phosphatase) reporter gene was placed under the control of the IFN-β minimal promoter fused to five NF-κB and AP-1-binding sites. The SEAP was induced by activating NF-κB and AP-1 via stimulating HEK-Blue hTLR8 cells with TLR8 ligands. Therefore the reporter expression was declined by TLR8 antagonist under the stimulation of a ligand, such as R848, for incubation of 20 hrs. The cell culture supernatant SEAP reporter activity was determined using QUANTT-BlueTv™ kit (Cat. #: rep-qbl, Invivogen, San Diego, Ca, USA) at a wavelength of 640 nm, a detection medium that turns purple or blue in the presence of alkaline phosphatase.
HEK293-Blue-hTLR8 cells were incubated at a density of 250,000˜450,000 cells/mL in a volume of 170 μL in a 96-well plate in Dulbecco's Modified Eagle's medium (DMEM) containing 4.5 g/L glucose, 50 U/mi penicillin, […] streptomycin, […], 2 mM L-glutamine, 10% (v/v) heat-inactivated fetal bovine serum with addition of 20 μL test compound in a serial dilution in the presence of final DMSO at 1% and 10 μL of 60 μM R848 in above DMEM, perform incubation under 37° C. in a CO2 incubator for 20 hrs. Then 20 μL of the supernatant from each well was incubated with 180 μL Quanti-blue substrate solution at 37° C. for 2 hrs and the absorbance was read at 620-655 nm using a spectrophotometer. The signaling pathway that TLR8 activation leads to downstream NF-κB activation has been widely accepted, and therefore similar reporter assay was modified for evaluating TLR8 antagonist.

Turning to `Cc1cc(N2CCC(c3cnc(N4CCNCC4)cc3C)[C@H](C)C2)c2cnn(C)c2n1` (single isomer, unassigned) [Example 20, 1,6-dimethyl-4-[cis-3-methyl-4-(4-methyl-6-piperazin-1-yl-3-pyridyl)-1-piperidyl]pyrazolo[3,4-b]pyridine], the IC50 turned out to be 6 nM.
With `Cc1cc(N2CCC(c3cnc(N4CCNCC4)cc3C)[C@H](C)C2)c2cnn(C)c2n1` (single isomer, unassigned) [Example 21, 1,6-dimethyl-4-[trans-3-methyl-4-(4-methyl-6-piperazin-1-yl-3-pyridyl)-1-piperidyl]pyrazolo[3,4-b]pyridine], the IC50 was determined as 3 nM.
The value for `Cc1cc(N2CCC(c3ncc(N4CCNCC4)nc3C)[C@H](C)C2)c2cnn(C)c2n1` (single isomer, unassigned) [Example 22, 1,6-dimethyl-4-[cis-3-methyl-4-(3-methyl-5-piperazin-1-yl-pyrazin-2-yl)-1-piperidyl]pyrazolo[3,4-b]pyridine] was 6 nM; that for `Cc1cc(N2CCC(c3ncc(N4CCNCC4)nc3C)[C@H](C)C2)c2cnn(C)c2n1` (single isomer, unassigned) [Example 23, 1,6-dimethyl-4-[trans-3-methyl-4-(3-methyl-5-piperazin-1-yl-pyrazin-2-yl)-1-piperidyl]pyrazolo[3,4-b]pyridine] was 7 nM; that for `Cc1cc(N2CCC(c3ncc(N4CCNCC4)cc3C)[C@H](C)C2)c2cnn(C)c2n1` (single isomer, unassigned) [Example 24, 1,6-dimethyl-4-[cis-3-methyl-4-(3-methyl-5-piperazin-1-yl-2-pyridyl)-1-piperidyl]pyrazolo[3,4-b]pyridine] was 5 nM.
Turning to `Cc1cc(N2CCC(c3ncc(N4CCNCC4)cc3C)[C@H](C)C2)c2cnn(C)c2n1` (single isomer, unassigned) [Example 25, 1,6-dimethyl-4-[trans-3-methyl-4-(3-methyl-5-piperazin-1-yl-2-pyridyl)-1-piperidyl]pyrazolo[3,4-b]pyridine], the IC50 is 7 nM.
As for `Cc1cc(N2CCC(c3ccc(N4CCNCC4)cc3)CC2)c2cnn(C)c2n1` [Example 1, 1,6-dimethyl-4-[4-(4-piperazin-1-ylphenyl)-1-piperidyl]pyrazolo[3,4-b]pyridine], the IC50 was 12 nM.
As for `Cc1cc(N2CCC(c3ccc(N4CCNCC4)cn3)CC2)c2cnn(C)c2n1` [Example 2, 1,6-dimethyl-4-[4-(5-piperazin-1-yl-2-pyridyl)-1-piperidyl]pyrazolo[3,4-b]pyridine], the IC50 is 21 nM.
On to `Cc1cc(N2CCC(c3cnc(N4CCNCC4)cn3)CC2)c2cnn(C)c2n1` [Example 3, 1,6-dimethyl-4-[4-(5-piperazin-1-ylpyrazin-2-yl)-1-piperidyl]pyrazolo[3,4-b]pyridine], for which the IC50 stood at 50 nM.
In the case of `Cc1cc(N2CCC(c3ncc(N4CCNCC4)cn3)CC2)c2cnn(C)c2n1` [Example 4, 1,6-dimethyl-4-[4-(5-piperazin-1-ylpyrimidin-2-yl)-1-piperidyl]pyrazolo[3,4-b]pyridine], the IC50 worked out at 59 nM.
In the case of `Cc1cc(N2CCNCC2)cnc1C1CCN(c2ccnc3c2cnn3C)CC1` [Example 5, 1-methyl-4-[4-(3-methyl-5-piperazin-1-yl-2-pyridyl)-1-piperidyl]pyrazolo[3,4-b]pyridine], the IC50 came out at 64 nM.
For the molecule `Cc1cc(N2CCNCC2)ncc1C1CCN(c2ccnc3c2cnn3C)CC1` [Example 6, 1-methyl-4-[4-(4-methyl-6-piperazin-1-yl-3-pyridyl)-1-piperidyl]pyrazolo[3,4-b]pyridine], the IC50 was determined as 37 nM.
Turning to `Cc1cc(N2CCC(c3ncc(N4CCNCC4)cc3C)CC2)c2cnn(C)c2n1` [Example 7, 1,6-dimethyl-4-[4-(3-methyl-5-piperazin-1-yl-2-pyridyl)-1-piperidyl]pyrazolo[3,4-b]pyridine], the IC50 came to 29 nM.
Consider `Cc1cc(N2CCC(c3cnc(N4CCNCC4)cc3C)CC2)c2cnn(C)c2n1` [Example 8, 1,6-dimethyl-4-[4-(4-methyl-6-piperazin-1-yl-3-pyridyl)-1-piperidyl]pyrazolo[3,4-b]pyridine], for which the IC50 was found to be 8 nM.
Regarding `Cc1cc(N2CCC(c3cc(C)c(N4CCNCC4)cn3)CC2)c2cnn(C)c2n1` [Example 9, 1,6-dimethyl-4-[4-(4-methyl-5-piperazin-1-yl-2-pyridyl)-1-piperidyl]pyrazolo[3,4-b]pyridine], the IC50 was found to be 31 nM.
The value for `Cc1cc(N2CCC(c3ccc(N4CCNCC4)nc3C)CC2)c2cnn(C)c2n1` [Example 10, 1,6-dimethyl-4-[4-(2-methyl-6-piperazin-1-yl-3-pyridyl)-1-piperidyl]pyrazolo[3,4-b]pyridine] was 13 nM.
For the molecule `Cc1cc(N2CCC(c3cnc(N4CCNCC4)nc3C)CC2)c2cnn(C)c2n1` [Example 11, 1,6-dimethyl-4-[4-(4-methyl-2-piperazin-1-yl-pyrimidin-5-yl)-1-piperidyl]pyrazolo[3,4-b]pyridine], the IC50 is 42 nM.
Turning to `CCc1cc(N2CCNCC2)cnc1C1CCN(c2cc(C)nc3c2cnn3C)CC1` [Example 13, 4-[4-(3-ethyl-5-piperazin-1-yl-2-pyridyl)-1-piperidyl]-1,6-dimethyl-pyrazolo[3,4-b]pyridine], the IC50 is 44 nM.
As to `COc1cc(N2CCNCC2)cnc1C1CCN(c2cc(C)nc3c2cnn3C)CC1` [Example 14, 4-[4-(3-methoxy-5-piperazin-1-yl-2-pyridyl)-1-piperidyl]-1,6-dimethyl-pyrazolo[3,4-b]pyridine], the IC50 was 13 nM.
Take `Cc1cc(N2CCC(c3ncc(N4CC[C@@H](N)[C@@H](F)C4)cc3C)CC2)c2cnn(C)c2n1` [Example 15, (3S,4R)-1-[6-[1-(1,6-dimethylpyrazolo[3,4-b]pyridin-4-yl)-4-piperidyl]-5-methyl-3-pyridyl]-3-fluoro-piperidin-4-amine]: the IC50 came to 47 nM.
Take `COC[C@H]1CN(c2cnc(C3CCN(c4cc(C)nc5c4cnn5C)CC3)c(C)c2)CCN1` [Example 16, 4-[4-[5-[(3R)-3-(methoxymethyl)piperazin-1-yl]-3-methyl-2-pyridyl]-1-piperidyl]-1,6-dimethyl-pyrazolo[3,4-b]pyridine]: the IC50 is 32 nM.
Turning to `CO[C@H]1CN(c2cnc(C3CCN(c4cc(C)nc5c4cnn5C)CC3)c(C)c2)CC[C@@H]1N` [Example 17, (3S,4S)-1-[6-[1-(1,6-dimethylpyrazolo[3,4-b]pyridin-4-yl)-4-piperidyl]-5-methyl-3-pyridyl]-3-methoxy-piperidin-4-amine], the IC50 was found to be 39 nM.
The same measure for `CO[C@@H]1CN(c2cnc([C@@H]3CCN(c4cc(C)nc5c4cnn5C)C[C@H]3C)c(C)c2)C[C@H]1N` [Example 26, (3R,4R)-1-[6-[(3S,4R)-1-(1,6-dimethylpyrazolo[3,4-b]pyridin-4-yl)-3-methyl-4-piperidyl]-5-methyl-3-pyridyl]-4-methoxy-pyrrolidin-3-amine]: 14 nM; for `Cc1cc(N2CC[C@@H](c3ncc(N4CC5(CNCCO5)C4)cc3C)[C@H](C)C2)c2cnn(C)c2n1` [Example 27, 2-[6-[(3S,4R)-1-(1,6-dimethylpyrazolo[3,4-b]pyridin-4-yl)-3-methyl-4-piperidyl]-5-methyl-3-pyridyl]-5-oxa-2,8-diazaspiro[3.5]nonane]: 7 nM.

The values are drawn from patent US20240360126A1, “PYRAZOLO[3,4-B]PYRIDINE COMPOUNDS FOR THE TREATMENT OF AUTOIMMUNE DISEASE” (Hoffmann-La Roche Inc., priority 2021, published 2024).
